Laboratory results from patent US20180369264A1, “COMBINATION OF A CARDIAC STEROID AND AN AKT INHIBITOR FOR THE TREATMENT OF CARDIOVASCULAR DISEASES AND DISORDERS” (YISSUM RESEARCH DEVELOPMENT COMPANY OF THE HEBREW …, priority 2015, published 2018).
Where two headings read alike, the source gives them in different places.

Key:
[1] = system: wild-type zebrafish larvae heart; type: in vivo, zebrafish (Danio rerio)
Description: Experiments were performed on wild-type (WT, AB strain) zebrafish (Danio rerio). The fish were maintained in accordance with the principles established by the NIH. […] The fish were kept in swimming medium (E3 medium) in small aquaria at 28° C. and maintained under a 14h: 10h light:dark cycle. The zebrafish larvae were maintained in the presence of 0.1% methylene blue (M9140, Sigma-Aldrich Inc, Israel) at 28° C. All measurements were taken in embryos at 72 hours post fertilization (hpf).
Ouabain, bufalin, digoxin, acetylcholine, carbachol, […] (pp2) and U0126 (1,4-diamino-2,3-dicyano-1,4-bis(2-aminophenylthio)butadiene) were purchased from Sigma-Aldrich Inc., Israel. The compounds were dissolved in egg water (0.3 g Instant Ocean Salt in distilled water) to a final selected concentration, as specified in the following examples. […]
Filming process Zebrafish larvae heart imaging was performed using an Olympus CKX41 (Japan) […] microscope with ×10 or ×20 magnification, and integrated incandescent illumination. A FastCam imi-tech (Korea) high speed digital camera with 640×480 pixel gray scale image sensor was mounted on the microscope, using ImCam software (IMI Technology, Co. Ltd) for high speed video recording. The larvae were anesthetized by placing them in filming/anesthetizing medium. Each larva in 0.5 ml filming/anesthetizing medium was transferred to a 96-well tissue culture plate at room temperature and sequential images of the heart were obtained, with the larvae positioned on their side, at 80 fps during 10 seconds with a shutter speed of 0.016 seconds.
Physiological parameters of cardiovascular performance, as indicated hereinbelow, were evaluated in the zebrafish larvae. Image analysis applications ImageJ (NIH, USA) were used, allowing the delineation of the endomyocardial border at the end of systole or end of diastole to define the ventricular area. Sequential still frames were analyzed to capture ventricular end-systole and end-diastole images. End Systolic Area (ESA, FIG. 1B) and End Diastolic Area (EDA, FIG. 1C) were used to calculate Fractional Area Change (FAC), according to the equation: FAC=(EDA-ESA)/EDA*100. The Ejection Fraction (EF) was determined by an independent estimate of ventricular volume. This was achieved by placing scan lines across the midventricular short axis (SA) and long axis (LA) at the end of systole (FIG. 1D) and diastole (FIG. 1E). […] EF was then calculated according to the equation: EF=(EDV-ESV)/EDV*100. Heart rate (HR) was measured in beats per minute. Cardiac output (CO) was calculated according to the equation: CO=(EDV-ESV)*HR. A minimum of five sequential pairs of systolic and diastolic cycles were measured and analyzed in 9-12 larvae for each treatment.

[2] = system: primary adult zebrafish cardiomyocytes; test: Primary adult zebrafish cardiomyocyte contractility; type: cell-based; details: for Amplitude / Contraction Rate (−dv/dt) / Relaxation Rate (+dv/dt): wt, 0.1 nM Oua, 0.5 Hz
Description: Adult (4 to 12-month-old) ventricular myocytes were obtained by enzymatic dissociation (with collagenase II and IV, at 5 mg/ml, each). The zebrafish were stunned by a blow to the head and the brain was pithed. The heart was quickly removed and placed in a small Petri dish containing 10 ml isolation solution: 100 mM NaCl, 10 mM KCl, 1.2 mM KH2PO4, 4 mM MgSO4, 50 mM taurine, 20 mM glucose, and 10 mM Hepes, pH 6.9. The ventricle was cut free from the bulbus and atrium under a binocular. Ventricles from 3 fish were incubated for 45 minutes at 32° C. in a solution containing perfusion buffer (150 mM NaCl, 5.4 mM KCl, 1.5 mM MgSO4, 0.4 mM NaH2PO4, 2 mM CaCl2, 10 mM glucose, and 10 mM Hepes, pH 7.7). Collagenases II and IV (Gibco, NY, USA, 5 mg/ml each) and additional CaCl2 (2.012 mM final concentration) were added. Following Eppendorf centrifugation (1 minute, 250×g at room temperature) the precipitated cells were suspended in 1 ml perfusion buffer for 30 minutes at room temperature before use.
Cells were transferred to a chamber with a quartz base and examined using an inverted epifluorescence microscope (Nikon Diaphot 200, Japan). The myocytes were field-stimulated (0.5 Hz, 70 V, square waves) and contractions were measured using a video motion edge detector (Crescent Electronics, Sandy, Utah, USA) at the rate of 5 Hz. Cardiomyocyte performance was calculated as the percentage of resting cell length. The slopes of contraction and relaxation (+dL/dt and −dL/dt) were calculated from the linear portions of the changes in contractility. 9 cells per each group were measured. Each of the experiments was repeated at least 3 times with identical results.

[3] = system: Ca^2+ transients in wt zebrafish isolated adult heart; test: Ca^2+ transients in wt zebrafish isolated adult heart; details: for Amplitude (Maximal deflection from baseline) / Area (Area under the transient relative to baseline) / Decay slope (−Δ Fluorescence in the linear phase/sec) / Rate / Rise slope (+Δ Fluorescence in the linear phase/sec): Ouabain 200 μM, MK-2206 1 nM
Description: (§1) Spontaneous Ca^2+ transients were measured in isolated hearts from adult zebrafish. The zebrafish were stunned by a blow to the head and the hearts were removed quickly and placed in Dulbecco's Modified Eagle's Medium (DMEM) containing 10% Fetal Bovine Serum (FBS) at room temperature. A total 3-5 hearts were placed in a small Petri dish containing 100 μl Krebs-Ringer's solution (119 mM NaCl, 2.5 mM KCl, 1 mM NaH2PO4, 2.5 mM CaCl2, 1.3 mM MgCl2, 20 mM HEPES and 11 mM D-glucose) with 0.01 mM Fura-2 AM (Biotium, Inc., CA, USA) in DMEM-FBS. Following incubation for 10 min (37° C., 5% CO2), 150 μl of Krebs-Ringer's solution were added to the Petri dish which was incubated for an additional 30 minutes. The dye was removed from the solution by two incubations (10 minutes each, room temperature) in DMEM-FBS solution. Intracellular Ca^2+ transients were measured in stabilizing medium containing 1% low-melt agarose in Krebs-Ringer's solution. The hearts were kept for 30 minutes in the presence of MK-2206 (or saline) and then underwent excitation/emission cycles for 2 minutes at 340 and 380 nm with 510 nm emission using a PTI fluorimetric system (Photon Technology International, Madison, USA). Ouabain was then added and the excitation/emission cycles were monitored for 8 minutes. The Ca^2+ levels are presented as the ratio of 340/380 nm fluorescence emission.

[4] = system: Ca^2+ transients in acc mutant zebrafish isolated adult heart; test: Ca^2+ transients in acc mutant zebrafish isolated adult heart; details: for Amplitude (Maximal deflection from baseline) / Area (Area under the transient relative to baseline) / Decay slope (−Δ Fluorescence in the linear phase/sec) / Rate / Rise slope (+Δ Fluorescence in the linear phase/sec): Acc mutant, Ouabain 200 μM, MK-2206 1 nM
Description: as §1

[5] = Akt inhibitor experiment, 1 nM MK, 20 minutes
[6] = ERK inhibitor experiment, 10 nM PD98059, 20 minutes
[7] = wt larvae, 10 nM MK-2206, 1 nM CS
[8] = pre-incubation 1 nM MK-2206, 0.1 nM ouabain

C[C@@H]1O[C@@H](O[C@H]2C[C@@H](O)[C@]3(CO)[C@H]4[C@H](O)C[C@]5(C)[C@@H](C6=CC(=O)OC6)CC[C@]5(O)[C@@H]4CC[C@]3(O)C2)[C@H](O)[C@H](O)[C@H]1O [ouabain, 3-(alpha-L-Rhamnopyranosyloxy)-1beta,5beta,11alpha,14,19-pentahydroxy-5beta-card-20(22)-enolide] was tested, and the “maximal increase in CO” value ([1]; 0.2 nM, 90 minutes) was 38±3.68%, the “effect on force of contraction” value ([1]; 1 nM) was “increased significantly the force of contraction” and the “effect on heart rate” value ([1]; 1 nM) was “without affecting heart rate”. For the same molecule, the “effect on heart rate” value ([1]; 0.05-0.4 nM, 90 minutes) was “no change in heart rate”, the “concentration producing a significant increase in heart contractility” value ([1]; added to larvae swimming medium) was 0.1 nM and the “effect on heart force of contraction (FAC, EF, CO)” value ([1]; low concentrations (ouabain 0.05-0.4 nM), 90 minutes) was “significant increase in the heart force of contraction in a dose-dependent manner”. The increase in contractility ([2]; 0.1 nM ouabain) was “three- to fourfold”, the Amplitude [2, 5] was 0.38 ± 0.05 and the “Contraction Rate (−dv/dt)” value [2, 5] was 1.84 ± 0.28. The “Relaxation Rate (+dv/dt)” value [2, 5] was 1.64 ± 0.23, the Amplitude [2, 6] was 0.53 ± 0.1 and the “Contraction Rate (−dv/dt)” value [2, 6] was 3.65 ± 0.38. For the same molecule, the “Relaxation Rate (+dv/dt)” value [2, 6] was 2.92 ± 0.37, the “increase in amplitude of the Ca^2+ transients” value ([3]; 200 μM ouabain) was 27% and the “increase in decay slope of the Ca^2+ transients” value ([3]; 200 μM ouabain) was 86%. For the same molecule, the “increase in rise slope of the Ca^2+ transients” value ([3]; 200 μM ouabain) was 61%, the “Amplitude (Maximal deflection from baseline)” value [3] was 6.59 ± 0.71 and the “Area (Area under the transient relative to baseline)” value [3] was 2.94 ± 0.44. The “Decay slope (−Δ Fluorescence in the linear phase/sec)” value [3] was 20 ± 3.51, the Rate [3] was 52 ± 6.8 wave/min and the “Rise slope (+Δ Fluorescence in the linear phase/sec)” value [3] was 7.84 ± 2.02. For the same molecule, the “Amplitude (Maximal deflection from baseline)” value [4] was 1.67 ± 0.15, the “Area (Area under the transient relative to baseline)” value [4] was 2.54 ± 0.56 and the “Decay slope (−Δ Fluorescence in the linear phase/sec)” value [4] was 1.92 ± 0.46. For the same molecule, the Rate [4] was 35 ± 8.4 wave/min, the “Rise slope (+Δ Fluorescence in the linear phase/sec)” value [4] was 0.47 ± 0.1 and the “changes in Ca^2+ transients parameters” value ([4]; acc, 200 μM ouabain) was “did not result in any changes in the Ca^2+ transients parameters”. For the same molecule, the “changes in Ca^2+ transient parameters in the presence of Akt inhibitor” value ([4]; acc, 200 μM ouabain, Akt inhibitor) was “did not cause any changes in Ca^2+ transient parameters”.
In the case of NC1(c2ccc(-c3nc4ccn5c(=O)[nH]nc5c4cc3-c3ccccc3)cc2)CCC1 [MK-2206], the “effect of inhibitor alone on heart function / basal contractility” value ([1]; PP2 50 nM, U0126 1 μM, MK-2206 10 nM for 2 hours) is reported as “did not affect heart contractility parameters”, the “effect on CS-induced increase in heart contractility (FAC and EF) compared with CS in the absence of the inhibitor” value [1, 7] is reported as “doubling of the CS-induced increase in heart contractility” and the “effect on heart rate of MK-2206 with CS” value [1, 7] is reported as “not accompanied by any effect on heart rate”. For the same molecule, the “contractility parameters, inhibitor by itself” value ([2]; 1 nM MK-2206) was “did not affect any of the contractility parameters”, the “enhancement of ouabain-induced augmentation: increase in amplitude” value [2, 8] was 113% and the “enhancement of ouabain-induced augmentation: increase in contraction rise time” value [2, 8] was 183%. The “enhancement of ouabain-induced augmentation: increase in relaxation rise time” value [2, 8] was 169%, the Amplitude [2, 5] was 0.19 ± 0.03 and the “Contraction Rate (−dv/dt)” value [2, 5] was 0.98 ± 0.19. The “Relaxation Rate (+dv/dt)” value [2, 5] was 0.87 ± 0.20, the “Amplitude (Maximal deflection from baseline)” value [3] was 4.8 ± 0.13 and the “Area (Area under the transient relative to baseline)” value [3] was 2.81 ± 0.19. For the same molecule, the “Decay slope (−Δ Fluorescence in the linear phase/sec)” value [3] was 4.65 ± 0.54, the Rate [3] was 48 ± 4.8 wave/min and the “Rise slope (+Δ Fluorescence in the linear phase/sec)” value [3] was 1.65 ± 0.28. The “Amplitude (Maximal deflection from baseline)” value [4] was 1.85 ± 0.05, the “Area (Area under the transient relative to baseline)” value [4] was 2.79 ± 0.23 and the “Decay slope (−Δ Fluorescence in the linear phase/sec)” value [4] was 1.72 ± 0.22. For the same molecule, the Rate [4] was 25 ± 3 wave/min and the “Rise slope (+Δ Fluorescence in the linear phase/sec)” value [4] was 0.51 ± 0.04.
